Assay results taken from ChEMBL document CHEMBL3044692, “Biological activity of alpha-thujaplicin, the isomer of hinokitiol” (Biol Pharm Bull, 2004).
Values after ≈ are worked out from the molar mass of the structure shown. Active and inactive are the calls of the source. The rule behind the calls is not given here.

Experiments:
[1] = system: Dermatophagoides farinae; assay: Acaricidal activity against Dermatophagoides farinae after 24 hr; assay type: functional
[2] = system: Dermatophagoides farinae; assay: Acaricidal activity against Dermatophagoides farinae assessed as mortality at 0.2 g/m'2 after 24 hr relative to control; assay type: functional
[3] = system: Dermatophagoides farinae; assay: Acaricidal activity against Dermatophagoides farinae assessed as mortality at 0.1 g/m'2 after 24 hr relative to control; assay type: functional
[4] = system: Dermatophagoides farinae; assay: Acaricidal activity against Dermatophagoides farinae assessed as mortality at 0.5 g/m'2 after 24 hr relative to control; assay type: functional
[5] = system: Dermatophagoides farinae; assay: Acaricidal activity against Dermatophagoides farinae assessed as mortality at 1 g/m'2 after 24 hr relative to control; assay type: functional
[6] = system: P388; assay: Growth inhibition of Mus musculus (mouse) P388 cells at 0.63 ug/ml after 24 hr by MTT assay; assay type: functional; details: P388, 24 h, read-out: GI
[7] = system: Tyrophagus putrescentiae; assay: Acaricidal activity against Tyrophagus putrescentiae at high concentration; assay type: functional, organism-based
[8] = system: Reticulitermes speratus; assay: Insecticidal activity against Reticulitermes speratus at 48 hr; assay type: functional
[9] = system: Dermatophagoides farinae; assay: Acaricidal activity against Dermatophagoides farinae assessed as mortality at 0.01 g/m'2 after 24 hr relative to control; assay type: functional
[10] = system: Reticulitermes speratus; assay: Insecticidal activity against Reticulitermes speratus assessed as mortality at 0.01 g/m'2 at 48 hr relative to control; assay type: functional
[11] = system: Reticulitermes speratus; assay: Insecticidal activity against Reticulitermes speratus assessed as mortality at 0.02 g/m'2 at 48 hr relative to control; assay type: functional
[12] = system: Reticulitermes speratus; assay: Insecticidal activity against Reticulitermes speratus assessed as mortality at 0.01 g/m'2 at 24 hr relative to control; assay type: functional
[13] = system: Reticulitermes speratus; assay: Insecticidal activity against Reticulitermes speratus assessed as mortality at 0.02 g/m'2 at 24 hr relative to control; assay type: functional
[14] = system: Reticulitermes speratus; assay: Insecticidal activity against Reticulitermes speratus assessed as mortality at 0.03 g/m'2 at 48 hr relative to control; assay type: functional
[15] = system: Reticulitermes speratus; assay: Insecticidal activity against Reticulitermes speratus assessed as mortality at 0.03 g/m'2 at 24 hr relative to control; assay type: functional
[16] = system: Reticulitermes speratus; assay: Insecticidal activity against Reticulitermes speratus assessed as mortality at 0.04 g/m'2 at 24 hr relative to control; assay type: functional
[17] = system: Reticulitermes speratus; assay: Insecticidal activity against Reticulitermes speratus assessed as mortality at 0.04 g/m'2 at 48 hr relative to control; assay type: functional
[18] = system: Reticulitermes speratus; assay: Insecticidal activity against Reticulitermes speratus assessed as mortality at 0.05 g/m'2 at 48 hr relative to control; assay type: functional
[19] = system: Reticulitermes speratus; assay: Insecticidal activity against Reticulitermes speratus assessed as mortality at 0.1 g/m'2 at 48 hr relative to control; assay type: functional
[20] = system: Reticulitermes speratus; assay: Insecticidal activity against Reticulitermes speratus assessed as mortality at 0.05 g/m'2 at 24 hr relative to control; assay type: functional
[21] = system: Reticulitermes speratus; assay: Insecticidal activity against Reticulitermes speratus assessed as mortality at 0.1 g/m'2 at 24 hr relative to control; assay type: functional
[22] = system: Legionella pneumophila; assay: Antibacterial activity against Legionella pneumophila SG 3 after 7 days by agar dilution method; assay type: functional; details: SG 3, 168 h
[23] = system: Legionella pneumophila; assay: Antibacterial activity against Legionella pneumophila SG 1 after 7 days by agar dilution method; assay type: functional; details: SG 1, 168 h
[24] = system: Colletotrichum orbiculare; assay: Antifungal activity against Colletotrichum orbiculare MAFF 306518 after 15 days by agar dilution method; assay type: functional; details: MAFF 306518, 360 h
[25] = system: Colletotrichum lagenaria; assay: Antifungal activity against Colletotrichum lagenaria after 15 days by agar dilution method; assay type: functional; details: 360 h
[26] = system: Phomopsis obscurans; assay: Antifungal activity against Phomopsis obscurans MAFF 744018 after 15 days by agar dilution method; assay type: functional; details: Paraphomopsis obscurans, MAFF 744018, 360 h
[27] = system: Botrytis cinerea; assay: Antifungal activity against Botryotinia fuckeliana IFO 30915 after 15 days by agar dilution method; assay type: functional; details: IFO 30915, 360 h
[28] = system: Fusarium solani; assay: Antifungal activity against Fusarium solani IFO 9955 after 15 days by agar dilution method; assay type: functional; details: IFO 9955, 360 h
[29] = system: Pythium aphanidermatum; assay: Antifungal activity against Pythium aphanidermatum IFO 32440 after 15 days by agar dilution method; assay type: functional; details: IFO 32440, 360 h
[30] = system: Thanatephorus cucumeris; assay: Antifungal activity against Thanatephorus cucumeris IFO 30455 after 15 days by agar dilution method; assay type: functional; details: IFO 30455, 360 h
[31] = Toxicity against ip dosed Mus musculus Slc:ddY (mouse) after 8 days; assay type: organism-based; details: in vivo
[32] = system: P388; assay: Growth inhibition of Mus musculus (mouse) P388 cells at >1.25 ug/ml after 48 hr by MTT assay; assay type: functional
[33] = system: P388; assay: Growth inhibition of Mus musculus (mouse) P388 cells at 0.63 ug/ml after 48 hr by MTT assay; assay type: functional; details: P388, 48 h, read-out: GI
[34] = system: P388; assay: Growth inhibition of Mus musculus (mouse) P388 cells at >1.25 ug/ml after 24 hr by MTT assay; assay type: functional
[35] = system: P388; assay: Growth inhibition of Mus musculus (mouse) P388 cells after 24 to 48 hr by MTT assay; assay type: functional, cell-based

SMILES: CCN(CC)C(=O)c1cccc(C)c1 [DIETHYLTOLUAMIDE]
- LC50 [1]: 0.79 g/m2
- mortality [2]: 7.2%
- mortality [3]: 0%
- mortality [4]: 20.5%
- mortality [5]: 45.5%

SMILES: CC[C@]1(O)C[C@@H]2CN(CCc3c([nH]c4ccccc34)[C@@](C(=O)OC)(c3cc4c(cc3OC)N(C)[C@H]3[C@@](O)(C(=O)OC)[C@H](OC(C)=O)[C@]5(CC)C=CCN6CC[C@]43[C@@H]65)C2)C1 [VINBLASTINE]
- inhibition of growth at 0.63 µg/mL [6]: 84%

SMILES: CC(C)c1ccccc(=O)c1O [ALPHA-THUJAPLICIN]
- Activity [7]: inactive
- LC50 [1]: 0.66 g/m2
- LC50 [8]: 0.02 g/m2
- mortality [9]: 1.1%
- mortality [3]: 0%
- mortality [4]: 38.4%
- mortality [5]: 69.5%
- mortality [10]: 0%
- mortality [11]: 0%
- mortality [12]: 0%
- mortality [13]: 0%
- mortality [14]: 100%
- mortality [15]: 0%
- mortality [16]: 13.3%
- mortality [17]: 100%
- mortality [18]: 100%
- mortality [19]: 100%
- mortality [20]: 93.3%
- mortality [21]: 100%
- MIC [22]: 50 mg/L (≈ 304 µM)
- MIC [23]: 12.5 mg/L (≈ 76.1 µM)
- MIC [24]: 12 mg/L (≈ 73.1 µM)
- MIC [25]: 12 mg/L (≈ 73.1 µM)
- MIC [26]: 12 mg/L (≈ 73.1 µM)
- MIC [27]: 25 mg/L (≈ 152 µM)
- MIC [28]: 50 mg/L (≈ 304 µM)
- MIC [29]: 12 mg/L (≈ 73.1 µM)
- MIC [30]: 12 mg/L (≈ 73.1 µM)
- LD50 at 192 h [31]: 256 mg/kg
- growth inhibition (GI) [32]: 100%
- inhibition of growth at 0.63 µg/mL [33]: 68%
- inhibition of growth at 0.63 µg/mL [6]: 78%
- growth inhibition (GI) [34]: 98%
- growth inhibition (GI) [35]: Dose-dependent effect
